According to paper PMC8500670, “A selective WDR5 degrader inhibits acute myeloid leukemia in patient-derived mouse models” (Science translational medicine, 2021):

Columns and labels:
Assay in all cases: biochemical
Set-up in all cases: kinase selectivity panel, activity as per cent of control, single concentration in duplicate
Settings in all cases: read-out: % of control remaining
Abl(h) = target: T1, Abl(h) (Homo sapiens, UniProt P00519)
T1 construct: gene ABL1
Protocol: (§1) We next assessed selectivity of MS67 against 22 protein methyltransferases (table S2) and a broad panel of common drug targets including 45 kinases (table S3) and 44 G protein–coupled receptors (GPCR), ion channels, and transporters (table S4). […] We subsequently determined that MS67 had moderate binding affinity (Ki = 1.0 ± 0.8 μM) to Sigma 2 receptor (fig. S10).

CDK1/cyclinB(h) = CDK1/cyclinB(h) (Homo sapiens, UniProt P06493)
Protocol: as §1

CDK2/cyclinA(h) = CDK2/cyclinA(h) (Homo sapiens, UniProt P24941)
Protocol: as §1

CHK1(h) = target: T2, CHK1(h) (Homo sapiens, UniProt O14757)
T2 construct: gene CHEK1
Protocol: as §1

CaMKIIα(h) = target: T3, CaMKIIα(h) (Homo sapiens, UniProt Q9UQM7)
T3 construct: gene CAMK2A
Protocol: as §1

EphA2(h) = EphA2(h) (Homo sapiens, UniProt P29317)
Protocol: as §1

EphA3(h) = EphA3(h) (Homo sapiens, UniProt P29320)
Protocol: as §1

EphB4(h) = EphB4(h) (Homo sapiens, UniProt P54760)
Protocol: as §1

FGFR1(h) = FGFR1(h) (Homo sapiens, UniProt P11362)
Protocol: as §1

GSK3β(h) = target: T4, GSK3β(h) (Homo sapiens, UniProt P49841)
T4 construct: gene GSK3B
Protocol: as §1

IKKα(h) = target: T5, IKKα(h) (Homo sapiens, UniProt O15111)
T5 construct: gene CHUK
Protocol: as §1

IRAK4(h) = IRAK4(h) (Homo sapiens, UniProt Q9NWZ3)
Protocol: as §1

JNK1α1(h) = target: T6, JNK1α1(h) (Homo sapiens, UniProt P45983)
T6 construct: gene MAPK8; isoform alpha1
Protocol: as §1

KDR(h) = KDR(h) (Homo sapiens, UniProt P35968)
Protocol: as §1

Lck(h) = Lck(h) (Homo sapiens, UniProt P06239)
Protocol: as §1

MAP4K4(h) = MAP4K4(h) (Homo sapiens, UniProt O95819)
Protocol: as §1

MARK1(h) = MARK1(h) (Homo sapiens, UniProt Q9P0L2)
Protocol: as §1

NEK2(h) = NEK2(h) (Homo sapiens, UniProt P51955)
Protocol: as §1

PAK2(h) = PAK2(h) (Homo sapiens, UniProt Q13177)
Protocol: as §1

PDK1(h) = target: T7, PDK1(h) (Homo sapiens, UniProt O15530)
T7 construct: gene PDPK1
Protocol: as §1

PKA(h) = target: T8, PKA(h) (Homo sapiens, UniProt P17612)
T8 construct: gene PRKACA
Protocol: as §1

PKCβII(h) = target: T9, PKCβII(h) (Homo sapiens, UniProt P05771)
T9 construct: gene PRKCB; isoform betaII
Protocol: as §1

Plk1(h) = Plk1(h) (Homo sapiens, UniProt P53350)
Protocol: as §1

SIK(h) = target: T10, SIK(h) (Homo sapiens, UniProt P57059)
T10 construct: gene SIK1
Protocol: as §1

TAO2(h) = target: T11, TAO2(h) (Homo sapiens, UniProt Q9UL54)
T11 construct: gene TAOK2
Protocol: as §1

cSRC(h) = target: T12, cSRC(h) (Homo sapiens, UniProt P12931)
T12 construct: gene SRC
Protocol: as §1

Chain of FGFR1(h) (P11362 whole entry): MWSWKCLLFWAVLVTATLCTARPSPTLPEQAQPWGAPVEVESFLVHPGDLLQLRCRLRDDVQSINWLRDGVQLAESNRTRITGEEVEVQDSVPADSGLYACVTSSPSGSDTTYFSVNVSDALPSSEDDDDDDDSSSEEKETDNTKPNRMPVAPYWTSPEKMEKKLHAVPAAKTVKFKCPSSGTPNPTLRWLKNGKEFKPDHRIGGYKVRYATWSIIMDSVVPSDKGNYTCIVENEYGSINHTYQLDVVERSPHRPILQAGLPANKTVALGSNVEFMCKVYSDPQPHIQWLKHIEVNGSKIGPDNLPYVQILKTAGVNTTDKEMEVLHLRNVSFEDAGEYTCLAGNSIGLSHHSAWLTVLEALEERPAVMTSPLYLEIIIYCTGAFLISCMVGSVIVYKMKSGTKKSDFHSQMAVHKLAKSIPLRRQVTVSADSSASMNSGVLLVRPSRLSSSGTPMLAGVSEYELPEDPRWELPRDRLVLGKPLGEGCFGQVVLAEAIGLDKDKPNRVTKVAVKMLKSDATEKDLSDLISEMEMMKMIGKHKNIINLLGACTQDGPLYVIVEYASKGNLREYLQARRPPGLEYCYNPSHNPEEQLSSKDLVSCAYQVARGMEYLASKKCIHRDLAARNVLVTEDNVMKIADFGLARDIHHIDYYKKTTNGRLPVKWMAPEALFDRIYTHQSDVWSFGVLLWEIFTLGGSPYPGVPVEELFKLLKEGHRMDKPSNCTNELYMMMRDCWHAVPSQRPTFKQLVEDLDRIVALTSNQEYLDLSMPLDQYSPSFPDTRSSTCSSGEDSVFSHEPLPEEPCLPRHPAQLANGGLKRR
T6 sequence (P45983 whole entry, canonical isoform): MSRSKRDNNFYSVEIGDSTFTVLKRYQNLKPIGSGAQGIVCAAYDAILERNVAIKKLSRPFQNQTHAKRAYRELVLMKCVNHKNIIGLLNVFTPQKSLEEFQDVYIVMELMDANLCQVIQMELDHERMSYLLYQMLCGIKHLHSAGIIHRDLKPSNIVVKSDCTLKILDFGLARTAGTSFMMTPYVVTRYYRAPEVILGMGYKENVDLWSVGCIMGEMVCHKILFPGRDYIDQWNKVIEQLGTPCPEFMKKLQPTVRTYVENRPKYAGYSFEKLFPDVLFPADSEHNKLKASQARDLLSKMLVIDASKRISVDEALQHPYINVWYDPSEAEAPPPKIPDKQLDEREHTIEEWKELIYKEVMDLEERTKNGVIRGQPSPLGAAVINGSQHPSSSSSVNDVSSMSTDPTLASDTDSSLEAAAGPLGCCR
T3 sequence (Q9UQM7 whole entry): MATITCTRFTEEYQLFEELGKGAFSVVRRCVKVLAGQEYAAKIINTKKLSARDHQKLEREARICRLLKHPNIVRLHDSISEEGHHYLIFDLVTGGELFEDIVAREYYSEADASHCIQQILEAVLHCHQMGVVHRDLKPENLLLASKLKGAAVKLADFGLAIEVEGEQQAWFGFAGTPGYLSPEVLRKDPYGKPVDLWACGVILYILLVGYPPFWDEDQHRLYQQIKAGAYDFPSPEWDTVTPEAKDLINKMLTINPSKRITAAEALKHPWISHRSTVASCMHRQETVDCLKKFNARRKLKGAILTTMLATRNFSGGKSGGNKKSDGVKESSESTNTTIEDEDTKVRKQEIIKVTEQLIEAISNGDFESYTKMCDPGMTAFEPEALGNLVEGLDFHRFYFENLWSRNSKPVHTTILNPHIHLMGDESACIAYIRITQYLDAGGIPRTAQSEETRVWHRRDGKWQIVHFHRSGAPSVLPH
Chain of KDR(h) (P35968 whole entry): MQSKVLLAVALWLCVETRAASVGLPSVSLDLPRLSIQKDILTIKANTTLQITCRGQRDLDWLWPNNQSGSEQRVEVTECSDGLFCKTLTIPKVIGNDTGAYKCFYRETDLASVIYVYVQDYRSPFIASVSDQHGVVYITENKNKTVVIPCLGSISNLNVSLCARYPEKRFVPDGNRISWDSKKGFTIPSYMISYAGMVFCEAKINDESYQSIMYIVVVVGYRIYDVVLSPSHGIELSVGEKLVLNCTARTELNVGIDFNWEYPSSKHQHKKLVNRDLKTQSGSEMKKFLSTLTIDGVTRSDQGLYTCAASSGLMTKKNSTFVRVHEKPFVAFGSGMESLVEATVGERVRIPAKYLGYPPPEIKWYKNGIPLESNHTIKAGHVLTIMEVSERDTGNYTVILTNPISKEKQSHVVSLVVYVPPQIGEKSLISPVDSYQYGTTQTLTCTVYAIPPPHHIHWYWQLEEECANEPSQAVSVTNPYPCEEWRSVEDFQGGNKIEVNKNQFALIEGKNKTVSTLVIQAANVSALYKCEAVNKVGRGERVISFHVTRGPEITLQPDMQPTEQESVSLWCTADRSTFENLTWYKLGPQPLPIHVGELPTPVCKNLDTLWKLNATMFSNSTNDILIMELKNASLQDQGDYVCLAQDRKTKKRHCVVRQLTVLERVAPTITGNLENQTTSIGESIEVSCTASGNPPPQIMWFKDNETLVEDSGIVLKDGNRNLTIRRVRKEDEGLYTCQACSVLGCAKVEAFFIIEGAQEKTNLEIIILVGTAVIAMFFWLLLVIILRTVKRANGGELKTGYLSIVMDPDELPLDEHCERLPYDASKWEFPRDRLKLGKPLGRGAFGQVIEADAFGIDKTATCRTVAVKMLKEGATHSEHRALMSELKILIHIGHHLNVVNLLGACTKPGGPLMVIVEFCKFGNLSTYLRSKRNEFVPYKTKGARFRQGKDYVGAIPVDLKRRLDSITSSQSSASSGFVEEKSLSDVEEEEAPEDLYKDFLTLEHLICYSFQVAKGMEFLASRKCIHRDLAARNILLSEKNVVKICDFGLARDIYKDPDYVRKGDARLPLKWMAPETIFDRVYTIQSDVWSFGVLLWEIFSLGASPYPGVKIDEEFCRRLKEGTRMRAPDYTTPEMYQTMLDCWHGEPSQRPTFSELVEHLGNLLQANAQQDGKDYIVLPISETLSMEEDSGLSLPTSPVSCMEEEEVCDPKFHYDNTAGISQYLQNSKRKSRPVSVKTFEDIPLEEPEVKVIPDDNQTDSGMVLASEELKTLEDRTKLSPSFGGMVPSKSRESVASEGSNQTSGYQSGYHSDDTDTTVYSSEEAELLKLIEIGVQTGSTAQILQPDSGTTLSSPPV
Chain of PAK2(h) (Q13177 whole entry): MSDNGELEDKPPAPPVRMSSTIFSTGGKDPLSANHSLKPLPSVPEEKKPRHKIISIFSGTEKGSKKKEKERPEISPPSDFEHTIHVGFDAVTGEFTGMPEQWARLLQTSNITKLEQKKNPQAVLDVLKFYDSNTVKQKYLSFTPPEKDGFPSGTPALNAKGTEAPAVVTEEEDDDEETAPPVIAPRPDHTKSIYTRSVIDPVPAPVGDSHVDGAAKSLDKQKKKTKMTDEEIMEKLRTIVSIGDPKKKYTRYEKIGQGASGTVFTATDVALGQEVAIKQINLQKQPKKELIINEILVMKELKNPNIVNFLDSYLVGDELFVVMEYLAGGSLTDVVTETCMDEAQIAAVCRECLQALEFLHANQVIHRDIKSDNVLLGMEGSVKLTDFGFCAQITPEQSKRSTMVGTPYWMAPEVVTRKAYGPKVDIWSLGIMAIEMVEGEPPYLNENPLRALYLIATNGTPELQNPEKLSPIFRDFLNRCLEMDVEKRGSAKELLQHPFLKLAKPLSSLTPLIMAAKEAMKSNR
T12 sequence (P12931 whole entry): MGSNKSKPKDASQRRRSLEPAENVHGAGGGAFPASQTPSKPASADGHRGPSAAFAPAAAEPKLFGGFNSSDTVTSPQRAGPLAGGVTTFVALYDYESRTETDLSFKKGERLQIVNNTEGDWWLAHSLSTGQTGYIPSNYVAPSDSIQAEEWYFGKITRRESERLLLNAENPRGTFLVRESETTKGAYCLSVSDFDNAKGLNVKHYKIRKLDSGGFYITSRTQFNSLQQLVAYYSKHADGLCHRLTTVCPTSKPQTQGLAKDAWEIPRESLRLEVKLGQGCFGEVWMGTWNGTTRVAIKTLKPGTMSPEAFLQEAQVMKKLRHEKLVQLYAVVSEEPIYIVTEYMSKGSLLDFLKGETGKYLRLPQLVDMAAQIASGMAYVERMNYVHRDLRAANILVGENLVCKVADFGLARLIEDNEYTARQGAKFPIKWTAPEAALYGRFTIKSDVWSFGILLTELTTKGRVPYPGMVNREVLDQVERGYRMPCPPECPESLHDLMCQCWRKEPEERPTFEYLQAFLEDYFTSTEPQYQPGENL
Chain of CDK1/cyclinB(h) (P06493 whole entry): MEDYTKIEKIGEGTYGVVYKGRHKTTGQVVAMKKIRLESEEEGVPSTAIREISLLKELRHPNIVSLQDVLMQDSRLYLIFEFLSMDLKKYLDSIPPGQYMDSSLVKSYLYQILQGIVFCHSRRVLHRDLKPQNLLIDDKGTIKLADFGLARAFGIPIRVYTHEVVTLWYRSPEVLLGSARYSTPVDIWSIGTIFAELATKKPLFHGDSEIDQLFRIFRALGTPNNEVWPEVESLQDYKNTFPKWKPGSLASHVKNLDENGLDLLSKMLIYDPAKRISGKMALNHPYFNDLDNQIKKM
Chain of CDK1/cyclinB(h) (P14635 whole entry partner): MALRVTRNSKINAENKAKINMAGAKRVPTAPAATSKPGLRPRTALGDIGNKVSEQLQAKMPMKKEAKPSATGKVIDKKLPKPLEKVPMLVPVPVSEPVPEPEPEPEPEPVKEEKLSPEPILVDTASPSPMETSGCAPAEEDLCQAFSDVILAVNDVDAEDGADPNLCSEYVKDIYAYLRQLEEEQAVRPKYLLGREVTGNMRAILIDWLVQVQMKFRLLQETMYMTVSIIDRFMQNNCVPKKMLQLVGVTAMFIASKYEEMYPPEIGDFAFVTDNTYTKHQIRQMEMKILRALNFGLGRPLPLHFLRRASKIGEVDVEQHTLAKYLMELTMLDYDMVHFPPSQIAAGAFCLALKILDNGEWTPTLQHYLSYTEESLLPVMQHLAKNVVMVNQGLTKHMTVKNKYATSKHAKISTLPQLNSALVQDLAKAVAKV

## Cc1ncsc1-c1ccc([C@H](C)NC(=O)[C@@H]2C[C@@H](O)CN2C(=O)[C@@H](NC(=O)CNC(=O)c2ccc(F)c(-c3ccc(N4C[C@@H](C)N(C)[C@@H](C)C4)c(NC(=O)c4c[nH]c(=O)cc4C(F)(F)F)c3)c2)C(C)(C)C)cc1 [MS67]
Abl(h)
  remaining activity at 1 µM: 99%
CDK1/cyclinB(h)
  remaining activity at 1 µM: 94%
CDK2/cyclinA(h)
  remaining activity at 1 µM: 91%
CHK1(h)
  remaining activity at 1 µM: 78%
CaMKIIα(h)
  remaining activity at 1 µM: 92%
EphA2(h)
  remaining activity at 1 µM: 80%
EphA3(h)
  remaining activity at 1 µM: 125%
EphB4(h)
  remaining activity at 1 µM: 150%
FGFR1(h)
  remaining activity at 1 µM: 105%
GSK3β(h)
  remaining activity at 1 µM: 110%
IKKα(h)
  remaining activity at 1 µM: 96%
IRAK4(h)
  remaining activity at 1 µM: 109%
JNK1α1(h)
  remaining activity at 1 µM: 104%
KDR(h)
  remaining activity at 1 µM: 110%
Lck(h)
  remaining activity at 1 µM: 97%
MAP4K4(h)
  remaining activity at 1 µM: 100%
MARK1(h)
  remaining activity at 1 µM: 100%
NEK2(h)
  remaining activity at 1 µM: 111%
PAK2(h)
  remaining activity at 1 µM: 89%
PDK1(h)
  remaining activity at 1 µM: 110%
PKA(h)
  remaining activity at 1 µM: 107%
PKCβII(h)
  remaining activity at 1 µM: 112%
Plk1(h)
  remaining activity at 1 µM: 87%
SIK(h)
  remaining activity at 1 µM: 84%
TAO2(h)
  remaining activity at 1 µM: 95%
cSRC(h)
  remaining activity at 1 µM: 96%
